Data taken from US20070032538A1, “Use of compounds” (priority 1999, published 2007).

System: subjects with IGM
Test: Multi-center, double-blind, parallel group, randomized study of nateglinide vs placebo before each main meal for 8 weeks in subjects with IGM
Type: in vivo, human
Conditions: nateglinide 30 mg, 60 mg or 120 mg before each main meal, 8 weeks of treatment
Procedure: Favorable effects can be verified that confirm that hypoglycemic agents such as insulin enhancers can restore early phase insulin secretion and reduce post-prandial glucose levels in subjects with IGM. A multi-center, double-blind, parallel group, randomized study can be conducted in subjects with IGM in order to evaluate the incidence of confirmed hypoglycemia and the effects on prandial glucose associated with the administration of nateglinide 30 mg, 60 mg or 120 mg or placebo before each main meal during 8 weeks of treatment. Subjects are selected on the basis of a 2-hour plasma glucose value after a 75 g oral glucose tolerance test (OGTT) and patients essentially meeting the following additional inclusion criteria are included in the study: • two-hour glycemia post-OGTT between 7.8 to 11.1 mmol/L (one OGTT to be performed during the year before entering the study, the second to be performed within two weeks prior entering the study); • FPG <7 mmol/L; • patients are to have a body mass index (BMI) between 20-32 kg/m2; • patients are to maintain prior diet during the full course of study; • males, non-fertile females, females of child-bearing potential using a medically approved birth control method are included; • the use of other antidiabetics during the trial is not permitted. Corresponding dosages of e.g. nateglinide are administered with a large glass of water 2 (BID), 3 (TID) or 4 (QID) times daily depending on the number of main meals (breakfast, lunch, snack, dinner). The first dose is to be given with the first main meal (standardized meal i.e. 55% carbohydrates, 25% fat and 20% protein). Visits are scheduled to be performed at weeks 0, 2, 4 and 8 and the patients are to be fasted for at least 7 hours. All blood samples for laboratory evaluations are drawn between 07.00 and 10.00 a.m. HbA1c is to be measured at baseline. and after 8 weeks of treatment (fasting glucose and fructosamine). Samples of blood are to be drawn at 10, 20, […], 60, 120, and 180 minutes after drug administration (time 0) and the glucose and insulin levels to be measured. At weeks 0 and 8 visits, patients complete a standard meal challenge containing approximately 500 kcal and measurements of insulin and glucose will be performed. […] With longer treatment and follow-up, conditions and diseases associated with IGM could be prevented or reduced.

Q: Which results are given for `CC(C)[C@H]1CC[C@H](C(=O)N[C@H](Cc2ccccc2)C(=O)O)CC1` [nateglinide, N-(trans-4-isopropylcyclohexylcarbonyl)-D-phenylalanine]?
A: 2 hour prandial glucose levels: significantly reduced; HBA1c: significantly reduced; early phase insulin secretion: restored; fructosamine levels: significantly reduced; progression to type 2 diabetes mellitus: could prevent or delay
